The source of these data is US11129845B2, “Compositions and methods for the delivery of nucleic acids” (CASE WESTERN RESERVE UNIVERSITY, priority 2014, dated 2021).

A value given as a limit tells only on which side of the number the result lay.

Series [1] can be described thus: Nanoparticle diameter and polydispersity by dynamic light scattering (Malvern Zetasizer). The following applies: for Nanoparticle diameter as measured by dynamic light scattering: siRNA-lipid complexes. In kind it is physicochemical. The method, then:
(§1) The cationic lipid carriers are dissolved in ethanol at a stock concentration of 2.5 mM, while all siRNA is reconstituted in nuclease-free water at a 0.25 μg/μL (18.8 μM) concentration. Nanoparticles are formulated by mixing the carriers with siRNA for a period of 30 min in RNase-free phosphate buffer saline (PBS) at pre-specified N/P ratios (N=number of protonable amines in lipid, P=number of phosphate groups in the siRNA). In preparing the lipoplexes, proper dilutions were made such that the volume ratio of ethanol:water was kept constant at 1:20. Minimizing the amount of ethanol is important because it is effective in dissolving lipids, thus inhibiting particle formation. The diameters (as determined by dynamic light scattering) and zeta potentials of all nanoparticles were analyzed using a Malvern Zetasizer instrument at pH=7.4. siRNA encapsulation efficiency was calculated using a RiboGreen fluorescence-based assay from Invitrogen, designed specifically for detection of free RNA at […] wavelengths of 480 and 520 nm, respectively. Nanoparticles were created with all carriers in the library so that final siRNA concentrations were 1.6 μg/mL. A linear standard curve was utilized to calculate the encapsulation efficiencies from signal intensities measured by a SpectraMax microplate reader (Molecular Devices).

Series [2] can be described thus: Zeta-potential of siRNA-lipid complexes (Malvern Zetasizer). In kind it is physicochemical. The method, then:
as §1

For the next series, the system named is GFP reporter protein. Put plainly: GFP reporter silencing in CHO-GFP cells (flow cytometry). The settings on record: N/P=4, 48 h post-transfection, 100 nM siRNA. In kind it is cell-based, Chinese hamster. On the procedure:
The RNAi induced silencing capabilities of each carrier was investigated in both a CHO-GFP non-cancerous cell line and an HT29-Luc (luciferase) human colon cancer cell line. Approximately 50,000 CHO-GFP cells were seeded into 6 well plates. When 25% confluency was achieved, the growth media were replaced with fresh serum free transfection media containing siRNA nanoparticles, at a dose of 100 nM siRNA. Negative controls included cells that were either treated with naked anti-GFP siRNA or with plain serum-free media. N/P ratios of 4, 6, 8, 10, 12, and 14 were tested for each carrier to determine the optimal nanoparticle formulation. […] After 4 h, the media were removed and replaced with fresh complete growth media, and cells were allowed to grow for another 24, 48, or 72 h post-transfection. At each of these time points, the CHO-GFP cells were rinsed twice with PBS, trypsinized, and fixed with 2% paraformaldehyde. […] Cell-Quest software was used to analyze the results and obtain mean fluorescence intensity (MFI) values.
The RNAi capabilities of each carrier were investigated by analyzing the silencing of a luciferase (Luc) reporter in HT29 cancer cells after anti-Luc siRNA therapy. […] Luciferase expression was determined using a Spectra Max luminometer upon the addition of a light-inducing substrate to the collected protein. […]

Series [3] relates to HT29-Luc cells. Put plainly: MTT cytotoxicity in HT29-Luc cells. In kind it is cell-based, human.
Series [4] has as its system HT29 colon carcinoma cells. Put plainly: Cellular uptake of Alexa Fluor 488-siRNA via flow cytometry. In kind it is cell-based, human. The following applies: HT29, N/P=18, 4 h, 100 nM Alexa Fluor 488-siRNA. On the procedure:
Flow cytometry was used to investigate the cellular uptake of our delivery system in HT29 colon carcinoma cells. All carriers in the library were formulated into nanoparticles by condensing Alexa Fluor 488-labeled siRNA at the optimal N/P ratio determined by the above luciferase knockdown studies. Approximately 50,000 cancer cells were seeded in 6-well plates and allowed to grow until 30-50% confluence was reached. The cancer cells were transfected with a 100 nM siRNA dose in serum-free media. After 4 h, the transfection media were aspirated and the cells were washed twice with PBS. The cells were then trypsinized, collected, and fixed with 2% paraformaldehyde in PBS, prior to flow cytometric analysis.

In series [5] the test system is HT29-Luc cells. Description: Live-cell confocal imaging of intracellular siRNA release. In kind it is cell-based, human. The method, then:
Live-cell confocal imaging was utilized to image the intracellular release and dispersion of siRNA following transfection with the lipid carrier that performed best during the reporter knockdown studies. Approximately 50,000 HT29-Luc cells were seeded onto glass-bottom dishes (MatTek—Ashland, Mass.). Once 40% confluency was established, the cells were stained with 75 nM LysoTracker Red DND-99 (Invitrogen) for 30 min in normal growth medium. Afterwards, the cells were transfected with 100 nM Alexa Fluor 488-labeled anti-Luc siRNA in fresh serum-free media using the designed cationic lipid agent that performed the best in the above reporter knockdown experiments. Imaging commenced 5 min post-transfection using an Olympus FV1000 confocal microscope, and continued periodically over the first 2 h. Throughout the course of the study, all cells were kept alive on the microscope in a humidified weather station under normal gas conditions (5% CO2). Another image was acquired after 24 h following re-administration of the LysoTracker stain.
Confocal microscopy was utilized to perform a time course study that analyzed the uptake and intracellular release kinetics of siRNA using the ECO delivery platform. Intracellular release and dispersion of siRNA is essential in RNA interference since the RNAi machinery is found in the cytosol. The images in FIG. 27 reveal that upon cellular uptake, the ECO nanoparticles are able to facilitate the escape of its siRNA payload from the endocytic pathway within the first 2 hours after transfection, avoiding lysosomal degradation. Such results are in congruence with the hemolytic activity data showing the membrane disruptive properties of the delivery system in pH environments characteristic of both endosomes and lysosomes.

In the case of `CCCCCCCC/C=C\CCCCCCCC(=O)N[C@@H](CS)C(=O)NCCNC(=O)CCN(CCN)CCC(=O)NCCNC(=O)[C@H](CS)NC(=O)CCCCCCC/C=C\CCCCCCCC` [ECO, (1-aminoethyl)iminobis[N-(oleicylcysteinyl-1-amino-ethyl)propionamide]], the “Polydispersity of siRNA-lipid complexes” value in series [1] (N/P = 2) was determined as 0.245; in series [1] (N/P = 5) it was 0.200; in series [1] (N/P = 8), 0.157; in series [1] (N/P = 10), 0.136; in series [1] (N/P = 15), 0.005. In addition, the “Nanoparticle diameter as measured by dynamic light scattering” value in series [1] (N/P = 2) is 468 ± 43 nm; in series [1] (N/P = 5), 448 ± 23 nm; in series [1] (N/P = 8), 59 ± 11 nm; in series [1] (N/P = 10), 78 ± 12 nm; in series [1] (N/P = 15), 42 ± 9 nm. The “Zeta-potential of siRNA-lipid complexes” value is −32.20 ± 0.90 mV in series [2] (pH = 7.4, N/P = 2); −16.84 ± 1.58 mV in series [2] (pH = 7.4, N/P = 5); 28.82 ± 1.03 mV in series [2] (pH = 7.4, N/P = 8); 25.68 ± 2.02 mV in series [2] (pH = 7.4, N/P = 10); 25.19 ± 2.32 mV in series [2] (pH = 7.4, N/P = 15). For the same molecule, the “relative GFP reporter expression” value in the series on GFP reporter protein is 61.0±5.05%. Besides, the “cell viability (MTT)” value in the series on HT29-Luc cells [3] (HT29, N/P=18) is on record as 87.3±2.72%; in the series on HT29-Luc cells [3] (HT29, N/P=20) it was 51.5±5.87%. In addition, in series [4], the “cellular uptake, mean fluorescence intensity (MFI)” value worked out at 2571±90. Moreover, the “time to escape of siRNA payload from the endocytic pathway” value with HT29-Luc cells [5] (HT29-Luc, after transfection) is not above 90 min; in the series with HT29-Luc cells [5] (after transfection (Example 3)), not above 120 min. The “time to evade lysosomal degradation” value in the series on HT29-Luc cells [5] (HT29-Luc, post-transfection) is on record as not above 1 h.
